Reference: patent US4789667A, “External pharmaceutical composition and methods of use” (priority 1984, dated 1988)
Where two headings read alike, the source gives them in different places.

Tests used:
serum calcium level [1] = assay: Serum calcium after intrarectal (Asu^1.7)-eel calcitonin suppository in rats; type: in vivo; conditions: rat, 0.7 MRC unit calcitonin, 7 parts enhancer
Description: (Asu^1.7)-eel calcitonin was gradually added and mixed with the mixture to form a uniform composition. The composition was slightly warmed, and filled into a suppository container to form a suppository for rats having a diameter of about 3 mm and a length of about 8 mm. This suppository contained 0.7 MRC unit of calcitonin. The suppository was intrarectally administered to a rat, and the concentration of calcium in the blood serum after administration was measured by using a calcium measuring kit (made by Iatoron Co.).
For comparison, suppositories (Comparisons 76 to 87) composed of 93 parts of cacao butter, 7 parts of the various pyroglutamates shown in Table 6 and caltitonin and a suppository composed only of cacao butter and caltitonin (Comparison 88) were prepared. They wre individually administered intrarectally to rats, and the calcium concentration in the serum was measured.

[2] = dog, in vivo
Description: Cacao butter (80 parts), 10 parts of each of the pyroglumtamates indicated in Table 8, and 10 parts of cephalothin sodium were uniformly mixed and then slightly warmed. The mixture was filled in a suppository container to form a suppository containing 1 g of the mixture. The suppository was administered intrarectally to a Beagle dog, and the concentration of cephalothin sodium in the blood after administration was measured by the cup method.
These suppositories were individually administered intrarectally to Beagle dogs, and the concentration of cephalothin sodium in the blood was measured.

[3] = system: carrageenan-induced edema; assay: Carrageenan-induced edema inhibiting effect of betamethasone valerate ointment; type: in vivo; conditions: rat paw, 0.15 part betamethasone valerate, 9.85 parts enhancer, vs gel ointment base
Description: The carrageenan-induced edema inhibiting effect of the ointment was examined in accordance with the method of E. Passarella [Arzneim, Forsch. 30 (I), No. 4, pages 647-651 (1980)]. Specifically, 0.1 ml of a 1% carrageenan suspension in 0.9% NaCl solution was injected into the tip of the right paw of each rat (body weight 150-175 g). The volume of the paw was measured before the administation of carrageenan and 3, 5 and 6 hours after the carrageenan administration by a mercury displacement device. The ointment was well rubbed into the inflamed site in an amount of 100 mg.
These ointments were applied to the tip of the paw, and their edema inhibiting effects were examined.
The percent edema inhibitions were calculated on the basis of the edema formation ratio of a rat to which only the gel ointment base was administered.

serum calcium level [4] = type: in vivo; conditions: rabbit, nasal, 15 units/50 microliters calcitonin, 10 parts enhancer
blood glucose level = assay: Blood glucose after intrarectal hog insulin gelatin capsular suppository in rabbits; type: in vivo; conditions: rabbit, 9.6 units insulin, 10 parts enhancer
Description: Fractionated coconut oil (90 parts) and 10 parts of each of the various pyroglutamates indicated in Table 7 were uniformly mixed, and then hog insulin was gradually added to form a uniform dispersion. The dispersion was filled in a gelatin capsule for suppositoes to form a gelatin capsular suppository. The suppository contained 9.6 units of insulin. The suppository was intrarectally administered to a rabbit and the blood glucose level after administration was measured by the glucose oxidase method.
For comparison, suppositories composed of 90 parts of fractionated coconut oil, 10 parts of the various pyroglutamates indicated in Table 7 (Comparisons 89 to 102) and insulin, and a suppository composed only of fractionated coconut oil and insulin (Comparison 103) were prepared, and tested in the same way as above.

**Q.** For `CC(C)=CCCC(C)CCOC(=O)[C@@H]1CCC(=O)N1` (stereo partly drawn) [Compound (224), Citronyl L-pyroglutamate], which “Percent decrease of the serum calcium level from that before administration” value (serum calcium level [1]; 1 hr.) is on record?
**A.** Its value is 29.2%.

**Q.** What about the “Percent decrease of the serum calcium level from that before administration” value (serum calcium level [1]; 2 hrs.) of the same compound?
**A.** The value was 26.7%.

**Q.** What about the “Percent decrease of the serum calcium level from that before administration” value (serum calcium level [1]; 3 hrs.) of the same compound?
**A.** The value was 11.4%.

**Q.** What about the “Percent decrease of the serum calcium level from that before administration” value (serum calcium level [1]; 5 hrs.) of the same compound?
**A.** The value was 0.9%.

**Q.** And the “Concentration of cephalothin sodium in the blood” value (“Concentration” for short) ([2]; 60 min)?
**A.** The value was 300 ng/mL.

**Q.** What about the “Concentration” value ([2]; 180 min) of the same compound?
**A.** Its value is 400 ng/mL.

**Q.** And the “Concentration” value ([2]; 300 min)?
**A.** The value was 300 ng/mL.

**Q.** And the Edema inhibition ([3]; 3 hrs.)?
**A.** Its Edema inhibition is 19.5%.

**Q.** And the Edema inhibition ([3]; 6 hrs.)?
**A.** The Edema inhibition was 38.8%.

**Q.** What about the Edema inhibition ([3]; 9 hrs.) of the same compound?
**A.** The Edema inhibition was 38.5%.

**Q.** What about the “Percent decrease of the serum calcium level from that before administration” value (serum calcium level [4]; 1 hr.) of the same compound?
**A.** The value was 9.0%.

**Q.** And the “Percent decrease of the serum calcium level from that before administration” value (serum calcium level [4]; 2 hrs.)?
**A.** Its value is 6.3%.

**Q.** What about the “Percent decrease of the serum calcium level from that before administration” value (serum calcium level [4]; 3 hrs.) of the same compound?
**A.** The value was 2.2%.

**Q.** What about the “Percent decrease of the serum calcium level from that before administration” value (serum calcium level [4]; 5 hrs.) of the same compound?
**A.** Its value is 0.6%.

**Q.** What about the “Percent decrease of the blood glucose level from that before administration” value (blood glucose level; 30 min.) of the same compound?
**A.** The value was 29.2%.

**Q.** And the “Percent decrease of the blood glucose level from that before administration” value (blood glucose level; 1 hr.)?
**A.** Its value is 32.1%.

**Q.** What about the “Percent decrease of the blood glucose level from that before administration” value (blood glucose level; 2 hrs.) of the same compound?
**A.** Its value is 18.5%.

**Q.** And the “Percent decrease of the blood glucose level from that before administration” value (blood glucose level; 3 hrs.)?
**A.** The value was 3.1%.
